Here are results for one molecule from US20260144769A1, “4-PHENYLBUTYRATE RESTORED GABA UPTAKE AND REDUCED SEIZURES IN SLC6A1 VARIANT-MEDIATED DISORDERS” (Vanderbilt University, priority 2022, published 2026).

For series [1], the system named is wildtype GAT-1 + GAT-1 D410E. The series can be described thus: 3H GABA uptake, HEK293T, mixture of wildtype and mutant cDNAs ("heterozygous"). As to conditions: wildtype:D410E cDNAs 1:1; PBA 2 mM, 24 hrs. It counts as cell-based, rat. How it is done:
(§1) GABA uptake activity was measured by the high-throughput 3H radio-labeling GABA uptake on a liquid scintillator with QuantaSmart. […] HEK293T cells were transfected with the wildtype or the mutant GAT-1^YFP cDNAs alone for 48 hr. […] HEK293T cells were transfected with the wildtype GAT-1^YFP alone or in mixture of the wildtype or the mutant cDNAs for 48 hr. In the mixed condition, the ratio of the wildtype GAT-1 with pcDNA or the mutant cDNAs are 1:1 with the total cDNA amount of 0.5 μg. […] Both wt and the mutant were normalized to its own DMSO treated conditions. 966 stands for the wildtype treated with CI-966 (50 μM) while 711 stands for NNC-711 (35 μM). (N=4-7 different transfections. In FIG. 4A and FIG. 4B, *P<0.05, **P<0.01, ***p<0.001 vs. wt 0. In FIG. C and FIG. 4D, *P<0.05, **P<0.01, ***p<0.001 vs. its own DMSO treated. In FIG. 4C, ns stands for no significance. One-way analysis of variance (ANOVA) and Newman-Keuls test. Values were expressed as mean±S.E.M.
(§2) The plasmid cDNA encoding enhanced yellow fluorescent protein (EYFP)-tagged rat GAT-1 has been previously described. The coding region of rGAT-1 was inserted into pEYFP-C1 (Clontech, Palo Alto, CA). QuikChange Site-directed Mutagenesis kit was utilized to introduce the GAT-1 variants into a wildtype GAT-1 plasmid. The product was then amplified via polymerase chain reaction, transformed using DH5a competent cells, and plated. A clone was chosen and grown overnight. All the GAT-1 variants were confirmed by DNA sequencing. Both the wildtype and the variant cDNAs were prepared with Qiagen Maxiprep kit.
(§3) Human embryonic kidney cells were cultured as monolayers in 100 mm^2 dishes. Cells were cultured in Dulbecco's Modified Eagle's Medium supplemented with 10% FBS and 1% penicillin/streptomycin in 37° C. in 5% CO2/95% air. Cells were maintained in culture medium until appropriate confluency for experimentation.
(§4) Briefly, cells were cultured in […] dishes for 3 days before the GABA uptake experiment in DMEM with 10% fetal bovine serum and 1% penicillin/streptomycin. The cells were then transfected with equal amounts of the wildtype or the mutant GAT-1 cDNAs (1 μg) for each condition at 24 hrs or 48 hrs after plating. GABA uptake assay was carried out 48 hrs after transfection. The cells were incubated with preincubation solution for 15 min and then incubated with preincubation solution containing 1 μci/mL 3H GABA and 10 μM unlabeled GABA for 30 min at room temperature. After washing, the cells were lysed with 0.25 N NaOH for 1 hr. Glacial acetic acid was added, and lysates were then determined on a liquid scintillator with QuantaSmart. The flux of GABA (pmol/μg/min) was averaged with at least triplets for each condition at each transfection. The average counting was taken as n=1. The untransfected condition was taken as a baseline that was subtracted from both the wildtype and the mutant conditions. The pmol/μg/min in the mutant was then normalized to the wildtype from each experiment, which was arbitrarily taken as 100%. The protocols for GABA reuptake assay in cultured mouse astrocytes, neuron or iPSC derived cells were modified from the GABA uptake protocol on HEK 293T cells. GAT-1 inhibitors CL-966 and NNC-711 were applied each time to make sure the radioactive counts were specific.
(§5) The working solution was stored at 4° C.

Series [2] deals with wildtype GAT-1 + GAT-1 L460R. Described as above. It counts as cell-based, rat. To be noted: wildtype:L460R cDNAs 1:1; PBA 2 mM, 24 hrs. The method, then: as §1, §2, §3, §4, §5
Series [3] concerns wildtype GAT-1 + GAT-1 W495X. The description is as above. In kind it is cell-based, rat. To be noted: wildtype:W495X cDNAs 1:1; PBA 2 mM, 24 hrs. How it is done: as §1, §2, §3, §4, §5
In series [4] the test system is wildtype GAT-1 + GAT-1 V125M. Described as above. It counts as cell-based, rat. As to conditions: wildtype:V125M cDNAs 1:1; PBA 2 mM, 24 hrs. The method, then:
as §1, §2, §3, §4, §5

Series [5] addresses T1, wildtype GAT-1 + GAT-1(E16X) (Rattus norvegicus, UniProt P23978).
T1 construct: expressed in transfected cells; host or cells: HEK293T cells
Described as above. To be noted: wildtype:E16X cDNAs 1:1; PBA 2 mM, 24 hrs. In kind it is cell-based. The method, then: as §1
The plasmid cDNA encoding enhanced yellow fluorescent protein (EYFP)-tagged rat GAT-1 has been previously described. […]
Briefly, cells were cultured in […] dishes for 3 days before the GABA uptake experiment in DMEM with 10% fetal bovine serum and 1% penicillin/streptomycin. […] Glacial acetic acid was added, and lysates were then determined on a liquid scintillator with QuantaSmart. […]

A further series addresses T2, wildtype GAT-1 (Rattus norvegicus, UniProt P23978).
T2 construct: The coding region of rGAT-1 was inserted into pEYFP-C1 (Clontech, Palo Alto, CA); expressed in transfected cells; host or cells: HEK293T cells (A1); astrocytes from corrected human iPSCs (A21)
The series can be described thus: 3H GABA uptake, HEK293T cells expressing wildtype GAT-1^YFP. To be noted: for GABA uptake activity vs. wildtype 0: HEK293T, wildtype GAT-1^YFP, normalized to DMSO treated. It counts as cell-based. The method, then:
as §1, §2, §3
Briefly, cells were cultured in […] dishes for 3 days before the GABA uptake experiment in DMEM with 10% fetal bovine serum and 1% penicillin/streptomycin. The cells were then transfected with equal amounts of the wildtype or the mutant GAT-1 cDNAs (1 μg) for each condition at 24 hrs or 48 hrs after plating. GABA uptake assay was carried out 48 hrs after transfection. The cells were incubated with preincubation solution for 15 min and then incubated with preincubation solution containing 1 μci/mL 3H GABA and 10 μM unlabeled GABA for 30 min at room temperature. After washing, the cells were lysed with 0.25 N NaOH for 1 hr. Glacial acetic acid was added, and lysates were then determined on a liquid scintillator with QuantaSmart. The flux of GABA (pmol/μg/min) was averaged with at least triplets for each condition at each transfection. The average counting was taken as n=1. […]

In a further series the test system is SLC6A1^+/S295L mice. The series can be described thus: Video-monitoring synchronized EEG recordings, seizure activity. It counts as in vivo, mouse. The method, then: as §5
The surgery to implant the EEG head mount and the video-monitoring synchronized EEG recordings were conducted as described by Kristensen et al., Pharmcol. Rev. 63 (3): 585-640 (2011) and Cai et al., Exp. Neurol. 3:112973 (2019).
For recordings, the sampling rate was set at 400 Hz with a pre-amplifier gain of […]. […] EEG recordings were scored blindly by a skilled scorer using the Sirenia Seizure Pro software. A power analysis was performed using the theta frequency band of 5-7 Hz. The 5-7 Hz SWDs band was chosen because it is the mouse correlate of 2-4 Hz SWDs in humans. An average power was calculated using baseline recordings and applied to seizure analysis for treatment recordings. Seizures identified by the software were confirmed using video recordings of the period. The Racine scale was used for seizure identification (Stage 1: mouth/facial movements; Stage 2: head nodding; Stage 3: forelimb clonus; Stage 4: rearing; Stage 5: rearing and falling). The identified SWDs were then confirmed with video monitoring and compared across treated and non-treated recordings. The total seizure events over 48 hrs of EEG recordings were reported.
First, ˜2-month-old mice were implanted with EEG head mounts. After 5-7 days recovery, the mice were treated with a normal saline vehicle for 7 days, and then subject to video monitored EEG recording for 48 hrs. […]

For the molecule `O=C(O)CCCc1ccccc1` [PBA, 4-phenylbutyric acid], the “GABA uptake normalized to its own DMSO treated condition” value in series [1] turned out to be 1.17±0.035; in series [2] it was 1.214±0.037; in series [3], 1.305±0.0296; in series [4], 1.33±0.05; in series [5], 1.149±0.025. The “GABA uptake activity vs. wildtype 0” value was found to be 1.24±0.09 at wildtype GAT-1 (PBA 4 mM as printed) and 1.24±0.05 on wildtype GAT-1 (PBA for 24 hrs). The “GABA uptake activity, concentration and time dependence” value on wildtype GAT-1 (PBA 0 to 4 mM, 0 to 48 hrs) was “concentration and time dependently increased”. Further, on wildtype GAT-1 (cells treated with PBA at 4 mM and/or 48 hrs), the cell loss entry was “occasional cell loss”. For the same molecule, in the series on SLC6A1^+/S295L mice (PBA 100 mg/kg, ip, single dose daily, 7 days (vehicle 127.7±34.08)), the “total number of 5-7 Hz SWDs over 48 hrs EEG recordings” value is 33.3±13.02. Besides, in the series on SLC6A1^+/S295L mice (PBA treatment alone, 1 week), the “reduction of seizure burden” value is ~76%.
